Reference: article PMC7782793, “Hydroxamic acid-modified peptide microarrays for profiling isozyme-selective interactions and inhibition of histone deacetylases” (Nature Communications, 2021)
Values joined by “and” are separate entries in the source; they are usually repeats but may differ in a detail not shown here. Equal entries are not always repeated. Marks after values point to notes of the source that are not given here. Non-standard residues stand in square brackets, D forms with d. Residues, ends and D or L forms follow the SMILES beside them. *: point of attachment. Asu = N[C@@H](CCCCCC(=O)O)C(=O)O; NHOH = ON*

Experiments:
[1] = biological target: T1, HDAC1 (Homo sapiens, UniProt Q13547); experiment: Recombinant HDAC µSPOT microarray binding assay;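 further: slides with spotted peptides incubated with six HDAC concentrations in HEPES buffer pH 7.4, spot intensities fitted by four-parameter logistic, EC50 as enzyme concentration giving half-maximal binding signal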
T1 construct: HDAC1 (full length, C-terminal His tag, C-terminal FLAG tag, BPS Bioscience, cat. #: 50051); FLAG (C); purchased BPS Bioscience 50051

[2] = biological target: T2, HDAC2 (Homo sapiens, UniProt Q92769); experiment: Recombinant HDAC µSPOT microarray binding assay;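 further: Cellulose-bound peptide spots on slides incubated with six HDAC enzyme concentrations, binding intensity read, four-parameter variable-slope fit, EC50 is enzyme concentration giving half-maximal binding, in HEPES buffer pH 7.4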
T2 construct: HDAC2 (full length, C-terminal His tag, BPS Bioscience, cat. #: 50002); purchased BPS Bioscience 50002

[3] = biological target: T3, HDAC3/NCoR2 (Homo sapiens, UniProt O15379); experiment: Recombinant HDAC µSPOT microarray binding assay;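 further: peptide spots on cellulose slides incubated with rising HDAC enzyme concentrations, imaged together, four-parameter logistic fit, EC50 is enzyme concentration giving half-maximal binding signal, two experiments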
T3 construct: HDAC3/NCoR2 (full length, C-terminal His tag, NCoR2 N-terminal GST tag); purchased BPS Bioscience 50003

[4] = biological target: T4, HDAC8 (Homo sapiens, UniProt Q9BY41); experiment: Recombinant HDAC µSPOT microarray binding assay;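 further: peptide µSPOT slides incubated with varying HDAC enzyme concentrations, imaged signal intensity fitted by four-parameter variable-slope regression, EC50 is enzyme concentration giving half-maximal binding, pH 7.4 HEPES buffer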
T4 construct: HDAC8 (full length, C-terminal His tag, BPS Bioscience, cat. #: 50008); purchased BPS Bioscience 50008
T4 sequence (Q9BY41 1-377): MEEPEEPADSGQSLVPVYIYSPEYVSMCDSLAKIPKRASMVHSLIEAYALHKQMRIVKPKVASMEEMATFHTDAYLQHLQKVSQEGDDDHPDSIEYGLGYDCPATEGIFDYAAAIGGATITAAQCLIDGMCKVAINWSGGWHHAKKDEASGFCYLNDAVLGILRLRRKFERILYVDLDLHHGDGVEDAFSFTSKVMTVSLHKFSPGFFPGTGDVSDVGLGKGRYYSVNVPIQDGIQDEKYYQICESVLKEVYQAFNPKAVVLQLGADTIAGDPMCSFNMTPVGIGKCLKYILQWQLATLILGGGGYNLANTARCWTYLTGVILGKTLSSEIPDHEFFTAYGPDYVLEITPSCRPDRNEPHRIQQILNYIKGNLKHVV
Protocol: Experiments were performed twice, data were obtained with Array Analyze software (Active Motif), and data analysis and representation were performed with the GraphPad Prism 7 software. Outliers were curated manually and data were fitted to nonlinear regression [log(agonist) vs. response—variable slope (four parameters)]. […] Non-sigmoidal curves were denoted as not determined (N.D.) The pEC50 values were determined as the concentration of HDAC enzyme required for half-maximal binding signal.

[5] = biological target: T1, HDAC1; experiment: HDAC inhibition assay (fluorogenic, Ac-Leu-Gly-Lys(Ac)-AMC); format: biochemical; conditions: for HDAC1 dose-response data (relative enzyme activity), Fig. 6 + S. Fig. 10: duplicate columns
[6] = biological target: T2, HDAC2; experiment: as above; format: biochemical; conditions: for HDAC2 dose-response data (relative enzyme activity), Fig. 6 + S. Fig. 10: duplicate columns
[7] = biological target: T3, HDAC3/NCoR2; experiment: as above; format: biochemical; conditions: for HDAC3 dose-response data (relative enzyme activity), Fig. 6 + S. Fig. 10: duplicate columns
[8] = log[inhibitor(M)] -10,5850266520292*, whole line marked with asterisks

T3 sequence (O15379 whole entry): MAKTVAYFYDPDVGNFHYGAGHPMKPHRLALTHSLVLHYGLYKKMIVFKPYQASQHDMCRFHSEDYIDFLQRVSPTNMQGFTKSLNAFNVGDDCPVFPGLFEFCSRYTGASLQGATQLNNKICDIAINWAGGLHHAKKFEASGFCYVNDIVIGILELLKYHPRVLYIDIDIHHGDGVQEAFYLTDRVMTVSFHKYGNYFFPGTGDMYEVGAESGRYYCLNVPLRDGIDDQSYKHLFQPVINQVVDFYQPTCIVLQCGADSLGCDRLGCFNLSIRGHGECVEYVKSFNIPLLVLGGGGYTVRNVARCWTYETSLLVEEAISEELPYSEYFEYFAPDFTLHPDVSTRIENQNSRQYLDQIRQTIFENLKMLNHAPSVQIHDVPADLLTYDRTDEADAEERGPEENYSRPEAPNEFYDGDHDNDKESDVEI
T3 sequence (Q9Y618 389-480 partner limits assumed): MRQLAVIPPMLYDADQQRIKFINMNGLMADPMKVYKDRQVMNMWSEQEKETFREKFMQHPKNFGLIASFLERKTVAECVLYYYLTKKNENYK
T2 sequence (Q92769 whole entry): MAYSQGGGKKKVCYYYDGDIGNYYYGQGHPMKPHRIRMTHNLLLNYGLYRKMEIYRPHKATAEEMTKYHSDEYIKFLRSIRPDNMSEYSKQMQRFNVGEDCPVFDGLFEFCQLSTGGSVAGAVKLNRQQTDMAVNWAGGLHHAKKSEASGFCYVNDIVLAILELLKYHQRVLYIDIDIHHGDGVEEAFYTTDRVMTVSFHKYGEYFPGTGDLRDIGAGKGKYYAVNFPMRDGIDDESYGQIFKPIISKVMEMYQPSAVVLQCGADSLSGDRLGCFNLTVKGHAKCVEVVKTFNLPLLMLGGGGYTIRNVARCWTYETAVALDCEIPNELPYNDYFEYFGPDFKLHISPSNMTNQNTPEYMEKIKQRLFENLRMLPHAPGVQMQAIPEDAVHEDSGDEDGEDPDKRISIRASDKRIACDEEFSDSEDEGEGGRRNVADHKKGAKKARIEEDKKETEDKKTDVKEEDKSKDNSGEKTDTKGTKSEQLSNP
T1 sequence (Q13547 whole entry): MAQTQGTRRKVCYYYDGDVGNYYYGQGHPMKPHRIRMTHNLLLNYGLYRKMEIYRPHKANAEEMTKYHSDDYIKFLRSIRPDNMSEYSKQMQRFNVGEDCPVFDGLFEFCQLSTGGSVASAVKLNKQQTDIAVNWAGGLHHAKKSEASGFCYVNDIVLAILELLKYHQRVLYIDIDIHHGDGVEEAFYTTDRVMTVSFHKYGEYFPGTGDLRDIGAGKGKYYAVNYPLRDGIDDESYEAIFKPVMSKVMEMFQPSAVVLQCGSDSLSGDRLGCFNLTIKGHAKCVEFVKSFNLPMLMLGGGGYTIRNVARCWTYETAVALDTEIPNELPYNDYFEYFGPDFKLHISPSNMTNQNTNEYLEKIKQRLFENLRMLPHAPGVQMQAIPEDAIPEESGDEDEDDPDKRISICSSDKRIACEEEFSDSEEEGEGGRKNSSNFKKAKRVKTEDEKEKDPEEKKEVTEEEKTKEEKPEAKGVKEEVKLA

`CC[C@H](C)[C@H](NC(=O)[C@H](CCC(=O)O)NC(=O)[C@H](CCCNC(=N)N)NC(=O)[C@H](CO)NC(=O)[C@@H](NC(=O)[C@@H](NC(=O)[C@@H](NC(=O)[C@H](CO)NC(=O)[C@H](CCCNC(=N)N)NC(=O)[C@H](CCCCCC(=O)NO)NC(=O)[C@H](CC(N)=O)NC(=O)[C@H](Cc1ccc(O)cc1)NC(=O)[C@H](Cc1c[nH]cn1)NC(C)=O)[C@@H](C)O)[C@@H](C)CC)[C@@H](C)O)C(=O)N[C@@H](CCC(N)=O)C(=O)N[C@H](C(=O)N[C@@H](C)C(=O)N[C@@H](Cc1c[nH]c2ccccc12)C(N)=O)[C@@H](C)O` [12a] (Ac-HYN[Asu](NHOH)RSTITSREIQTAW-NH2) was tested, and the EC50 [1] was over 25.1 nM, the EC50 [2] was over 25.1 nM and the EC50 [3] was 2.57 nM. The EC50 [4] was over 25.1 nM, the Ki [5] was 27.1 ± 0.1 nM and the “HDAC1 dose-response data (relative enzyme activity), Fig. 6 + S. Fig. 10” value ([5]; log[inhibitor(M)] -4.30103) was 0.9347 and 0.662. For the same molecule, the “HDAC1 dose-response data (relative enzyme activity), Fig. 6 + S. Fig. 10” value ([5]; log[inhibitor(M)] -5) was 2.038 and 1.878, the “HDAC1 dose-response data (relative enzyme activity), Fig. 6 + S. Fig. 10” value ([5]; log[inhibitor(M)] -5.69897) was 7.98 and 7.034 and the “HDAC1 dose-response data (relative enzyme activity), Fig. 6 + S. Fig. 10” value ([5]; log[inhibitor(M)] -6.39794) was 27.0557 and 22.8999. The “HDAC1 dose-response data (relative enzyme activity), Fig. 6 + S. Fig. 10” value ([5]; log[inhibitor(M)] -7.09691) was 60.7171 and 55.9643, the “HDAC1 dose-response data (relative enzyme activity), Fig. 6 + S. Fig. 10” value ([5]; log[inhibitor(M)] -7.79588) was 89.3741 and 84.8138 and the “HDAC1 dose-response data (relative enzyme activity), Fig. 6 + S. Fig. 10” value ([5]; log[inhibitor(M)] -8.49485) was 97.3199 and 95.6638. For the same molecule, the “HDAC1 dose-response data (relative enzyme activity), Fig. 6 + S. Fig. 10” value ([5]; log[inhibitor(M)] -9.19382) was 101.477 and 97.552, the “HDAC1 dose-response data (relative enzyme activity), Fig. 6 + S. Fig. 10” value ([5]; log[inhibitor(M)] -9.89279) was 101.081 and 96.9441 and the “HDAC1 dose-response data (relative enzyme activity), Fig. 6 + S. Fig. 10” value [5, 8] was 100,220716* and 99,6623992*. For the same molecule, the “HDAC2 dose-response data (relative enzyme activity), Fig. 6 + S. Fig. 10” value ([6]; log[inhibitor(M)] -5) was 3.067 and 2.914, the “HDAC2 dose-response data (relative enzyme activity), Fig. 6 + S. Fig. 10” value ([6]; log[inhibitor(M)] -5.69897) was 11.3787 and 10.2695 and the “HDAC2 dose-response data (relative enzyme activity), Fig. 6 + S. Fig. 10” value ([6]; log[inhibitor(M)] -7.79588) was 90.7701 and 92.8679. The “HDAC2 dose-response data (relative enzyme activity), Fig. 6 + S. Fig. 10” value [6, 8] was 102,18881* and 100,790249*, the Ki ([6]; resynthesized peptide in solution, Cheng-Prusoff, n = 2) was 23.8 ± 0.1 nM and the Ki [7] was 10.6 ± 0.1 nM. The “HDAC3 dose-response data (relative enzyme activity), Fig. 6 + S. Fig. 10” value ([7]; log[inhibitor(M)] -4.30103) was 0.7368 and 0.5682, the “HDAC3 dose-response data (relative enzyme activity), Fig. 6 + S. Fig. 10” value ([7]; log[inhibitor(M)] -5) was 1.408 and 1.481 and the “HDAC3 dose-response data (relative enzyme activity), Fig. 6 + S. Fig. 10” value ([7]; log[inhibitor(M)] -5.69897) was 5.267 and 4.363. For the same molecule, the “HDAC3 dose-response data (relative enzyme activity), Fig. 6 + S. Fig. 10” value ([7]; log[inhibitor(M)] -6.39794) was 16.4324 and 13.9407 and the “HDAC3 dose-response data (relative enzyme activity), Fig. 6 + S. Fig. 10” value ([7]; log[inhibitor(M)] -7.09691) was 38.5352 and 35.6199.
